According to patent publication US20070202079A1, “Therapeutic compositions and methods useful in modulating protein tyrosine phosphatases” (priority 2006, published 2007):
Where two headings read alike, the source gives them in different places.

What was measured:
[1] = biological target: T1, MKP1 (Homo sapiens, UniProt P28562); assay: in vitro PTPase assay, GST/MKP1; assay type: biochemical; conditions: for inhibition of MKP1: levamisole, pentamidine, ketoconazole
T1 construct: a pGEX construct containing the coding region of MKP1 cDNA derived by RT-PCR; made in house; host or cells: DH5a bacteria (E. coli)
T1 sequence (P28562 1-367): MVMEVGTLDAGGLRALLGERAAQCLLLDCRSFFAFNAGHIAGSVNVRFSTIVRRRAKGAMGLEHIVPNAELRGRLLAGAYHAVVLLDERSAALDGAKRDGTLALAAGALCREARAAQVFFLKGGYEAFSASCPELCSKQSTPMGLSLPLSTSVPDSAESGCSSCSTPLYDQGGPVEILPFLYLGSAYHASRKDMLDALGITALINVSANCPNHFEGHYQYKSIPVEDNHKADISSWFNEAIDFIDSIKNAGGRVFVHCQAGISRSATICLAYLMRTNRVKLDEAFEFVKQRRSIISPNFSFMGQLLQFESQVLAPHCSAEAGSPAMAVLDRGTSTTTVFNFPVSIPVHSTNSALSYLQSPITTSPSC
Method: In vitro PTPase activities were measured using the commercial protein tyrosine phosphatase assay kit (Upstate Biotechnology, Inc. (“UBI”)) following established procedure known to one of skill in the art. This assay measures the in vitro dephosphorylation of a synthetic phosphotyrosine peptide of the sequence Arg-Arg-Leu-Ile-Glu-Asp-Ala-Gle-T- -yr-Ala-Ala-Arg-Gly, wherein the tyrosine is phosphorylated (SEQ ID NO: 3). Briefly, 0.01 μg of GST/PTPase fusion proteins was incubated in 50 μl of Tris buffer (10 mM Tris, pH 7.4) containing different concentrations of inhibitors or chemicals (0-1,000 μg/ml) at 22° C. for 10 minutes, followed by addition of 0.2 mM of the phosphotyrosine peptide and incubation at 22° C. for 18 hours. 100 μl of Malachite Green solution was added and incubated for 5 minutes, and the absorbance at 660 nm was measured after 5 minutes.
In vitro PTPase assays were used to determine the effects of levamisole (Sigma), pentamidine (American Pharmaceutical Partners, Inc.), and ketoconazole (Sigma) on recombinant PTPases, following established procedures (Pathak et al., J. Immunol. 167, 3391 (2001); Pathak et al., Leukemia 16, 2285 (2002), Yi et al., J. Immunol. 169, 5978 (2002)) using a synthetic phosphotyrosine peptide or DiFMUP as the substrate as detailed above in section I.A.2.

[2] = tested on: WM9 cells; assay: WM9 cell growth, MTT; assay type: cell-based, human
Method: For cell proliferation assays, cells were grown in 10% FCS culture medium containing various amounts of IFNs and/or sodium stibogluconate in 96 well plates and cultured at 37° C. for 3 or 6 days as indicated. The numbers of viable cells in proliferation assays were determined by MTT assays as described in Phatak et al., J. Immunol. 167, 3391 (2001).
Renca (Murphy, G. P., and W. J. Hrushesky. 1973. A murine renal cell carcinoma. J Natl Cancer Inst 50:1013), Jurkat (Gillis, S., and J. Watson. 1980. Biochemical and biological characterization of lymphocyte regulatory molecules. V. Identification of an interleukin 2-producing human leukemia T cell line. J Exp Med 152:1709) and WM9 (Forsberg, K., I. Valyi-Nagy, C. H. Heldin, M. Herlyn, and B. Westermark. 1993. Platelet-derived growth factor (PDGF) in oncogenesis: development of a vascular connective tissue stroma in xenotransplanted human melanoma producing PDGF-BB. Proc Natl Acad Sci USA 90:393) cell lines were obtained from a colleague at the Cleveland Clinic Foundation (CCF) and cultured in RPMI 1640 medium supplemented with 10% fetal calf serum (FCS). Recombinant IL-2 (Proleukin, 22 million IU/1.3 mg, Chiron, Emeryville, Calif.) was purchased from the CCF pharmacy. SSG has been described previously (Yi, T., M. K. Pathak, D. J. Lindner, M. E. Ketterer, C. Farver, and E. C. Borden. 2002. Anticancer activity of sodium stibogluconate in synergy with IFNs. J Immunol 169:5978).
NIH3T3 (Yi, et al., Blood 85, 87 (1995)), WM9 (Forsberg, et al., Proc. Nat. Acad Sci. USA 90, 393 (1993)), DU145 (Mickey, et al., Cancer Res. 37, 4049 (1977)), LoVo (Drewinko, et al., Cancer Res. 36, 467 (1976)), HEY (Buick, et al., Cancer Res. 45, 3668 (1985)), U251 (Yoshida, et al., Cancer 50, 410 (1982)), A549 (Giard, et al., J. Natl. Cancer Inst. 51, 1417 (1973)) and SK-N-SH (Helson, et al., Cancer Res. 35, 2594 (1975)) cell lines have been described and were cultured in RPMI 1640 supplemented with 10% fetal calf serum (FCS). For measurement of sodium stibogluconate effects on cell growth in vitro, cells were cultured in the absence (−) or presence (+) of various amounts of sodium stibogluconate for 6 days with viable cells quantified by MTT assays (Mosmann, J. Immunol. Methods 65, 55 (1983)). Percentages of growth inhibition by sodium stibogluconate were calculated (.+−.x%).

CC(=O)N1CCN(c2ccc(OCC3COC(Cn4ccnc4)(c4ccc(Cl)cc4Cl)O3)cc2)CC1 (centres unmarked) [ketoconazole]
inhibition of MKP1 [1]: substantial inhibition | effect on IFN-alpha activity, WM9 ([2]; 40 μg/ml): minor augmenting effect | activity against WM9 cells ([2]; 0.625-20 μg/ml, single agent or with IFN-alpha): no apparent activity | inhibition at 40 µg/mL ([2]; Homo sapiens, WM9, 144 h, single agent, 40 μg/ml, 6 days): 67%

N=C(N)c1ccc(OCCCCCOc2ccc(C(=N)N)cc2)cc1 [pentamidine]
inhibition of MKP1 [1]: substantial inhibition | effect on IFN-alpha-induced growth inhibition of WM9 ([2]; most obviously at 0.625-1.25 μg/ml): augmented IFN-alpha-induced growth inhibition | growth inhibition of WM9 cells ([2]; single agent, 2.5-5 μg/ml, 6 days): 86-97%

O.O.O.O.O.O.O.O.O.O=C([O-])[C@@H]1[O][Sb]2([O-])([O][Sb]34([OH])[O][C@H]([C@H](O)CO)[C@H]([O]3)[C@H](C(=O)[O-])[O]4)[O][C@H]([C@H](O)CO)[C@@H]1[O]2.[Na+].[Na+].[Na+] [sodium stibogluconate]
inhibitory activity against MKP1 [1]: no obvious inhibitory activity | inhibitory activity against MKP1 ([1]; listed as SS): no obvious effects | WM9 cells, single agent ([2]; 50 μg/ml and 100 μg/ml, day 6 culture): killed all cells | WM9 cell growth in culture ([2]; SSG, 6 days, comparable conditions): inhibited by SSG in a dose-dependent manner
